This assay addresses T1, Glycogen phosphorylase, muscle form (Oryctolagus cuniculus, UniProt P00489).
T1 sequence (P00489 whole entry): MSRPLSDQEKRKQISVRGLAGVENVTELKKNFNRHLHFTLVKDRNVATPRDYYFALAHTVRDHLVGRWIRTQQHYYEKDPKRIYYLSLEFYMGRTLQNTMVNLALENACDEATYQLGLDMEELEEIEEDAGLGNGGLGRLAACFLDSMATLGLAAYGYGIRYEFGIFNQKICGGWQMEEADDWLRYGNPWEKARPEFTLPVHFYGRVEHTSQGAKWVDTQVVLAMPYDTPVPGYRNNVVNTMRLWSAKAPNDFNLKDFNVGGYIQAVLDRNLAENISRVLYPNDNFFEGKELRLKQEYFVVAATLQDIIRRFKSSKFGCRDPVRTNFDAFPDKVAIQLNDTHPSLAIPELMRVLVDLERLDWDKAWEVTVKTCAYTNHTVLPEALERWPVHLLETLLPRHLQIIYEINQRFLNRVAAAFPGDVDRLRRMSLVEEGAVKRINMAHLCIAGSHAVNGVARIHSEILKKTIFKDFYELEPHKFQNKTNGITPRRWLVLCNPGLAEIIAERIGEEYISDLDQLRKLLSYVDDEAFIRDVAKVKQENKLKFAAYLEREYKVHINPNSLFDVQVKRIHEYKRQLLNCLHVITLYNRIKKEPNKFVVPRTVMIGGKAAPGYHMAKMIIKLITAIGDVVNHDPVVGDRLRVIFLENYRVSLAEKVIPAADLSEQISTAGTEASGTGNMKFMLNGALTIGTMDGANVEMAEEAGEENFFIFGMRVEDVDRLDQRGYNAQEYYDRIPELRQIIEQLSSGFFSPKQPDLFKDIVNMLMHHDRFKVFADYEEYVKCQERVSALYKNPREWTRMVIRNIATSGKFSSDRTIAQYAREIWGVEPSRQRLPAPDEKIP
Nature of the assay: Inhibition of rabbit muscle glycogen phosphorylase A assessed as release of phosphate from glucose-1-phosphate after 25 mins by microplate reader based method.
The term IC50 denotes the point on the concentration scale where inhibition reaches its midpoint. `C[C@H]1[C@H](C)CC[C@]2(C(=O)OC3CC3)CC[C@]3(C)C(=CC[C@@H]4[C@@]5(C)C[C@@H](O)[C@H](O)C(C)(C)[C@@H]5CC[C@]43C)[C@H]12`: the IC50 amounted to 91.2 µM.

As for `C[C@H]1[C@H](C)CC[C@]2(C(=O)OCCN3CCCCC3)CC[C@]3(C)C(=CC[C@@H]4[C@@]5(C)C[C@@H](O)[C@H](O)[C@@](C)(CO)[C@@H]5CC[C@]43C)[C@H]12`, the IC50 is 132 µM.

As for `C[C@H]1[C@H](C)CC[C@]2(C(=O)OCCN3CCOCC3)CC[C@]3(C)C(=CC[C@@H]4[C@@]5(C)C[C@@H](O)[C@H](O)[C@@](C)(CO)[C@@H]5CC[C@]43C)[C@H]12`, the IC50 was 173 µM.

For `COS(=O)(=O)[C@@H]1C[C@]2(C)[C@H]3CC=C4[C@@H]5[C@@H](C)[C@H](C)CC[C@]5(C(=O)OCc5ccccc5)CC[C@@]4(C)[C@]3(C)CC[C@H]2C(C)(C)[C@H]1O`, the IC50 was determined as 43.4 µM.

In the case of `COC(=O)[C@@]1(C)[C@@H]2CC[C@]3(C)[C@H](CC=C4[C@@H]5[C@@H](C)[C@H](C)CC[C@]5(C(=O)O)CC[C@]43C)[C@@]2(C)C[C@@H](OC(C)=O)[C@@H]1OC(C)=O`, the concentration for half-maximal inhibition (IC50) turned out to be 33 µM.

As for `CCCOC(=O)[C@@]1(C)[C@@H]2CC[C@]3(C)[C@H](CC=C4[C@@H]5[C@@H](C)[C@H](C)CC[C@]5(C(=O)O)CC[C@]43C)[C@@]2(C)C[C@@H](OC(=O)CCC)[C@@H]1OC(=O)CCC`, the IC50 was 10 µM.

As to `CC1(C)CC[C@]2(C(=O)O)CC[C@]3(C)C(=CC[C@@H]4[C@@]5(C)C[C@H](O)[C@H](O)[C@@](C)(CO)[C@@H]5CC[C@]43C)[C@@H]2C1`, the half-inhibitory concentration (IC50) is 67.8 µM.

Regarding `CC1(C)CC[C@]2(C(=O)OCc3ccccc3)CC[C@]3(C)C(=CC[C@@H]4[C@@]5(C)CC(=O)[C@H](O)C(C)(C)[C@@H]5CC[C@]43C)[C@@H]2C1`, the IC50 is 52.9 µM.

In the case of `CC1(C)CC[C@]2(C(=O)O)CC[C@]3(C)C(=CC[C@@H]4[C@@]5(C)C/C(=N\O)[C@H](O)C(C)(C)[C@@H]5CC[C@]43C)[C@@H]2C1`, the IC50 was 28.2 µM.

Take `CC1(C)CC[C@]2(C(=O)OCc3ccccc3)CC[C@]3(C)C(=CC[C@@H]4[C@@]5(C)C/C(=N\O)[C@H](O)C(C)(C)[C@@H]5CC[C@]43C)[C@@H]2C1`: the IC50 came to 179 µM.

As to `CC1(C)CC[C@]2(C(=O)O)CC[C@]3(C)C(=CC[C@@H]4[C@@]5(C)C/C(=N\O)C(=O)C(C)(C)[C@@H]5CC[C@]43C)[C@@H]2C1`, the IC50 was found to be 26.1 µM.

With `CC1(C)CC[C@]2(C(=O)OCc3ccccc3)CC[C@]3(C)C(=CC[C@@H]4[C@@]5(C)C/C(=N\O)C(=O)C(C)(C)[C@@H]5CC[C@]43C)[C@@H]2C1`, the IC50 was 46.8 µM.

As to `C[C@H]1[C@H](C)CC[C@]2(C(=O)OCc3ccccc3)CC[C@]3(C)C(=CC[C@@H]4[C@@]5(C)C/C(=N\O)C(=O)C(C)(C)[C@@H]5CC[C@]43C)[C@H]12`, the half-inhibitory concentration (IC50) came to 82.9 µM.

For the molecule `CC1(C)CC[C@]2(C(=O)OCc3ccccc3)CC[C@]3(C)C(=CC[C@@H]4[C@@]5(C)CC(=N\O)/C(=N\O)C(C)(C)[C@@H]5CC[C@]43C)[C@@H]2C1`, the half-maximal inhibitory concentration (IC50) is 22.3 µM.

For the molecule `CC1(C)CC[C@]2(C(=O)OCc3ccccc3)CC[C@]3(C)C(=CC[C@@H]4[C@@]5(C)C/C(=N\OCc6ccccc6)C(=O)C(C)(C)[C@@H]5CC[C@]43C)[C@@H]2C1`, the half-maximal inhibitory concentration (IC50) was found to be 61.3 µM.

On to `CC1(C)CC[C@]2(C(=O)OCc3ccccc3)CC[C@]3(C)C(=CC[C@@H]4[C@@]5(C)C/C(=N\OCc6ccc(Cl)cc6Cl)C(=O)C(C)(C)[C@@H]5CC[C@]43C)[C@@H]2C1`, for which the IC50 was 8 µM.

`CC1(C)CC[C@]2(C(=O)O)CC[C@]3(C)C(=CC[C@@H]4[C@@]5(C)CC6C=NOC6C(C)(C)[C@@H]5CC[C@]43C)[C@@H]2C1` (stereo partly specified): the IC50 came out at 12.7 µM.

As to `CC1(C)CC[C@]2(C(=O)OCc3ccccc3)CC[C@]3(C)C(=CC[C@@H]4[C@@]5(C)CC6C=NOC6C(C)(C)[C@@H]5CC[C@]43C)[C@@H]2C1` (stereo partly specified), the half-maximal inhibitory concentration (IC50) came to 19.6 µM.

In the case of `CC1(C)CC[C@]2(C(=O)O)CC[C@]3(C)C(=CC[C@@H]4[C@@]5(C)Cc6nonc6C(C)(C)[C@@H]5CC[C@]43C)[C@@H]2C1`, the IC50 turned out to be 11.2 µM.

In the case of `C[C@H]1[C@H](C)CC[C@]2(C(=O)O)CC[C@]3(C)C(=CC[C@@H]4[C@@]5(C)Cc6nonc6C(C)(C)[C@@H]5CC[C@]43C)[C@H]12`, the half-inhibitory concentration (IC50) turned out to be 66.3 µM.

Regarding `Cc1ccc(-n2ncc3c2C(C)(C)[C@@H]2CC[C@]4(C)[C@H](CC=C5[C@@H]6CC(C)(C)CC[C@]6(C(=O)O)CC[C@]54C)[C@@]2(C)C3)cc1`, the IC50 turned out to be 18.3 µM.

As to `CC1(C)CC[C@]2(C(=O)O)CC[C@]3(C)C(=CC[C@@H]4[C@@]5(C)Cc6cnn(-c7ccc(Cl)cc7)c6C(C)(C)[C@@H]5CC[C@]43C)[C@@H]2C1`, the IC50 came out at 242 µM.

In the case of `CC1(C)CC[C@]2(C(=O)O)CC[C@]3(C)C(=CC[C@@H]4[C@@]5(C)Cc6cnn(-c7cc(F)cc(F)c7)c6C(C)(C)[C@@H]5CC[C@]43C)[C@@H]2C1`, the IC50 was found to be 46.9 µM.

In the case of `CC(C)c1ccc(-n2ncc3c2C(C)(C)[C@@H]2CC[C@]4(C)[C@H](CC=C5[C@@H]6CC(C)(C)CC[C@]6(C(=O)O)CC[C@]54C)[C@@]2(C)C3)cc1`, the IC50 came out at 69.6 µM.

With `CC(=O)O[C@@H]1C[C@]2(C)[C@H]3CC=C4[C@@H]5[C@@H](C)[C@H](C)CC[C@]5(C(=O)O)CC[C@@]4(C)[C@]3(C)CC[C@H]2C(C)(C)[C@H]1O`, the half-inhibitory concentration (IC50) amounted to 37.7 µM.

Take `CCCC(=O)O[C@@H]1C[C@]2(C)[C@H]3CC=C4[C@@H]5[C@@H](C)[C@H](C)CC[C@]5(C(=O)O)CC[C@@]4(C)[C@]3(C)CC[C@H]2C(C)(C)[C@H]1OC(=O)CCC`: the IC50 was determined as 78.7 µM.

As to `C[C@H]1[C@H](C)CC[C@]2(C(=O)OCn3cccn3)CC[C@]3(C)C(=CC[C@@H]4[C@@]5(C)C[C@@H](O)[C@H](O)C(C)(C)[C@@H]5CC[C@]43C)[C@H]12`, the IC50 worked out at 62.1 µM.

In the case of `CCOC(=O)COC(=O)[C@]12CC[C@@H](C)[C@H](C)[C@H]1C1=CC[C@@H]3[C@@]4(C)C[C@@H](O)[C@H](O)C(C)(C)[C@@H]4CC[C@@]3(C)[C@]1(C)CC2`, the IC50 came out at 102 µM.

In the case of `CCCOC(=O)[C@]12CC[C@@H](C)[C@H](C)[C@H]1C1=CC[C@@H]3[C@@]4(C)C[C@@H](O)[C@H](O)C(C)(C)[C@@H]4CC[C@@]3(C)[C@]1(C)CC2`, the IC50 worked out at 82.5 µM.

As to `CCCCOC(=O)[C@]12CC[C@@H](C)[C@H](C)[C@H]1C1=CC[C@@H]3[C@@]4(C)C[C@@H](O)[C@H](O)C(C)(C)[C@@H]4CC[C@@]3(C)[C@]1(C)CC2`, the IC50 amounted to 92.1 µM.

`CCCCCC(=O)O[C@@H]1C[C@]2(C)[C@H]3CC=C4[C@@H]5[C@@H](C)[C@H](C)CC[C@]5(C(=O)O)CC[C@@]4(C)[C@]3(C)CC[C@H]2C(C)(C)[C@H]1O`: the IC50 was found to be 3.26 µM.

For the molecule `C[C@H]1[C@H](C)CC[C@]2(C(=O)OCc3ccccc3)CC[C@]3(C)C(=CC[C@@H]4[C@@]5(C)C[C@@H](O)[C@H](O)C(C)(C)[C@@H]5CC[C@]43C)[C@H]12`, the IC50 was found to be 41.2 µM.

Take `CCOC(=O)[C@]12CC[C@@H](C)[C@H](C)[C@H]1C1=CC[C@@H]3[C@@]4(C)C[C@@H](O)[C@H](O)C(C)(C)[C@@H]4CC[C@@]3(C)[C@]1(C)CC2`: the IC50 worked out at 46.7 µM.

As to `C[C@H]1[C@H](C)CC[C@]2(C(=O)OCc3ccccc3)CC[C@]3(C)C(=CC[C@@H]4[C@@]5(C)C[C@@H](O)C(=O)C(C)(C)[C@@H]5CC[C@]43C)[C@H]12`, the IC50 is 31.8 µM.

Regarding `C[C@H]1[C@H](C)CC[C@]2(C(=O)OCc3ccccc3)CC[C@]3(C)C(=CC[C@@H]4[C@@]5(C)C[C@H](O)[C@H](O)C(C)(C)[C@@H]5CC[C@]43C)[C@H]12`, the concentration for half-maximal inhibition (IC50) is 108 µM.

Turning to `C[C@H]1[C@H](C)CC[C@]2(C(=O)O)CC[C@]3(C)C(=CC[C@@H]4[C@@]5(C)C[C@@H](OC(=O)c6ccccc6)[C@H](O)C(C)(C)[C@@H]5CC[C@]43C)[C@H]12`, the 50% inhibitory concentration (IC50) came out at 5.1 µM.

Regarding `CC(=O)O[C@@H]1C[C@]2(C)[C@H]3CC=C4[C@@H]5[C@@H](C)[C@H](C)CC[C@]5(C(=O)O)CC[C@@]4(C)[C@]3(C)CC[C@H]2C(C)(C)[C@H]1OC(C)=O`, the half-maximal inhibitory concentration (IC50) is 35 µM.

Take `CCC(=O)O[C@@H]1C[C@]2(C)[C@H]3CC=C4[C@@H]5[C@@H](C)[C@H](C)CC[C@]5(C(=O)O)CC[C@@]4(C)[C@]3(C)CC[C@H]2C(C)(C)[C@H]1OC(=O)CC`: the half-inhibitory concentration (IC50) stood at 73.7 µM.

Take `C[C@H]1[C@H](C)CC[C@]2(C(=O)OCc3ccccc3)CC[C@]3(C)C(=CC[C@@H]4[C@@]5(C)C[C@@H]6O[C@@H]6C(C)(C)[C@@H]5CC[C@]43C)[C@H]12`: the half-maximal inhibitory concentration (IC50) is 69.5 µM.

As for `CCCC(=O)O[C@@H]1C[C@]2(C)[C@H]3CC=C4[C@@H]5[C@@H](C)[C@H](C)CC[C@]5(C(=O)O)CC[C@@]4(C)[C@]3(C)CC[C@H]2C(C)(C)[C@H]1O`, the IC50 turned out to be 77.9 µM.

As for `CC1(C)CC[C@]2(C(=O)O)CC[C@]3(C)C(=CC[C@@H]4[C@@]5(C)Cc6cnn(-c7ccccc7)c6C(C)(C)[C@@H]5CC[C@]43C)[C@@H]2C1`, the IC50 amounted to 35.1 µM.

These data come from ChEMBL document CHEMBL1795338, “Identification of pentacyclic triterpenes derivatives as potent inhibitors against glycogen phosphorylase based on 3D-QSAR studies” (Eur J Med Chem, 2011).
